The record followed here is patent publication US6828315B1, “1-Amino triazoloc4,3-a! quinazoline-5-ones and/or -5-thiones inhibiting phosphodiesterase IV” (Warner-Lambert LLC, priority 1999, dated 2004).

Series [1] concerns the target type 4 phosphodiesterases (PDE4). The experiment in a line: Inhibition of the phosphodiesterase (PDE4), enzymatic preparation from line U937. The conditions noted are these: PDE4 from cytosolic preparation of human cell line U937. It is filed as biochemical. How it is done:
The capacity of the formula (I) compounds of the invention to inhibit the cyclic nucleotide phosphodiesterases is evaluated by their Cl50 measurement (necessary concentration to inhibit 50% of enzymatic activity).
The type 4 phosphodiesterases are obtained from a cytosolic preparation extracted from the human origin cellular line U937 according to a method adapted from T. J. Torphy and al., 1992, J.Pharm.Exp. Ther. 263: 1195-1205
The other classes of phosphodiesterases are obtained after partial purification FPLC on Mono Q column. (anion exchange column) according to a method adapted from Lavan B. E., Lakey T., Houslay M. D. Biochemical Pharmacology, 1989, 38(22), 4123-4136., and from Silver P. J and al., 1988, Eur.J. Pharmacol. 150: 85-94, either, from human origin cellular lines for PDE 1 (monocytar line TPH1) and PDE5 (line MCF7 issued from an adenocarcinoma), or from dog aorta for PDE 3, or for the human PDE3A, from gene cloning in insect cells SF21 in baculovirus, according to a method adapted from Luckow, V. A. and al., 1991 in Recombinant DNA Technology&Applications.,eds. Prokop, Bajpai,R. K.&Ho,C. S., pp97-152. The enzymatic activity measurement of the different PDE classes, and in particular the PDE 4, is performed according to a method adapted from W. J. Thompson and al. 1979, Advances in Cyclic Nucleotide Research, Vol. 10: 69-92, ed. G. Brooker and al. Raven Press, NY.
For the Cl50 determination, the enzymatic activity is measured in the presence of inhibitor within concentration margins of 0.1 to 100 μM.
The following table illustrates the PDE4 inhibitory activity from enzymatic preparation obtained from the line U937.

As for `O=c1c2cc(Cl)ccc2n2c(N3CCCCCC3)nnc2n1Cc1ccc(Cl)cc1` [Compound 11, 1-(azepan-1-yl)-7-chloro-4-(4-chlorobenzyl)-4H-[1,2,4]triazolo[4,3-a]quinazolin-5-one], the melting point (in general, the temperature, or range, at which the solid turns liquid) turned out to be 166 °C. Half-maximal inhibition in series [1] (IC50) required 80 nM.
For `O=c1c2cc(Cl)ccc2n2c(N3CCCCCC3)nnc2n1Cc1ccc(F)cc1` [Compound 13, 1-(azepan-1-yl)-7-chloro-4-(4-fluorobenzyl)-4H-[1,2,4]triazolo[4,3-a]quinazolin-5-one], in that order: 150 °C and 60 nM.
For `COc1ccc(Cn2c(=O)c3cc(Cl)ccc3n3c(N4CCCCCC4)nnc23)cc1OC` [Compound 20, 1-(azepan-1-yl)-7-chloro-4-(3,4-dimethoxybenzyl)-4H-[1,2,4]triazolo[4,3-a]quinazolin-5-one], in that order: 172 °C and 40 nM.
The like results for `O=c1c2cc(Cl)ccc2n2c(N3CCCCCC3)nnc2n1Cc1cccnc1` [Compound 22, 1-(azepan-1-yl)-7-chloro-4-(3-pyridylmethyl)-4H-[1,2,4]triazolo[4,3-a]quinazolin-5-one] were, in that order, 155 °C and 410 nM.
With `O=c1c2cc(Br)ccc2n2c(N3CCCCCC3)nnc2n1Cc1ccc(Cl)cc1` [Compound 32, 1-(azepan-1-yl)-7-bromo-4-(4-chloro-benzyl)-4H-[1,2,4]triazolo[4,3-a]quinazolin-5-one], the melting point came out at 179 °C. Inhibition in series [1] was half-maximal at 53 nM (IC50).
For the compound `N#Cc1ccc(Cn2c(=O)c3cc(Br)ccc3n3c(N4CCCCCC4)nnc23)cc1` [Compound 34, 4-(1-Azepan-1-yl-7-bromo-5-oxo-5H-[1,2,4]triazolo[4,3-a]quinazolin-4-ylmethyl)-benzonitrile], the melting point is 190 °C. Inhibition in series [1] was half-maximal at 56 nM (IC50).
For `O=c1c2cc(Br)ccc2n2c(N3CCCCCC3)nnc2n1CC=Cc1ccccc1` [Compound 37, 1-(azepan-1-yl)-7-bromo-4-(3-phenylallyl)-4H-[1,2,4]triazolo[4,3-a]quinazolin-5-one], in that order: 155 °C and 15 nM.
For `O=c1c2cc(Br)ccc2n2c(N3CCCCCC3)nnc2n1C/C=C/c1cccnc1` [Compound 40, 1-Azepan-1-yl-7-bromo-4-((E)-3-pyridin-3-yl-allyl)-4H-[1,2,4]triazolo[4,3-a]quinazolin-5-one], in that order: 185 °C and 14 nM.
For `O=c1c2cc(Br)ccc2n2c(N3CCCCCC3)nnc2n1CC=Cc1ccncc1` [Compound 41, 1-Azepan-1-yl-7-bromo-4-(3-pyridin-4-yl-allyl)-4H-[1,2,4]triazolo[4,3-a]quinazolin-5-one], in that order: 216 °C and 18 nM.
For `Cc1ccc(Cn2c(=O)c3cc(Br)ccc3n3c(N4CCCC4)nnc23)cc1` [Compound 42, 7-Bromo-4-(4-methyl-benzyl)-1-pyrrolidin-1-yl-4H-[1,2,4]triazolo[4,3-a]quinazolin-5-one], the melting point came out at 215 °C. The IC50 (commonly the concentration at which inhibition is half-maximal) in series [1] was 24 nM.
The like results for `O=c1c2cc(Br)ccc2n2c(N3CCCC3)nnc2n1Cc1ccc(Cl)cc1` [Compound 43, 7-Bromo-4-(4-chloro-benzyl)-1-pyrrolidin-1-yl-4H-[1,2,4]triazolo[4,3-a]quinazolin-5-one] were, in that order, 105 °C and 30 nM.
`O=c1c2cc(Br)ccc2n2c(N3CCCC3)nnc2n1Cc1ccc(F)cc1` [Compound 44, 7-Bromo-4-(4-fluoro-benzyl)-1-pyrrolidin-1-yl-4H-[1,2,4]triazolo[4,3-a]quinazolin-5-one] displayed a melting point of 166 °C. Besides, in series [1], half-maximal inhibition (IC50) required 90 nM.
The like results for `COC(=O)c1ccc(Cn2c(=O)c3cc(Br)ccc3n3c(N4CCCC4)nnc23)cc1` [Compound 47, 4-(7-Bromo-5-oxo-1-pyrrolidin-1-yl-5H-[1,2,4]triazolo[4,3-a]quinazolin-4-ylmethyl)-benzoic acid methyl ester] were, in that order, 205 °C and 50 nM.
In turn, `O=c1c2cc(Br)ccc2n2c(N3CCCC3)nnc2n1Cc1ccc([N+](=O)[O-])cc1` [Compound 48, 7-Bromo-4-(4-nitro-benzyl)-1-pyrrolidin-1-yl-4H-[1,2,4]triazolo[4,3-a]quinazolin-5-one] came in with a melting point of 200 °C. The compound further registered an IC50 in series [1] of 25 nM.
The like results for `COc1ccc(Cn2c(=O)c3cc(Br)ccc3n3c(N4CCCC4)nnc23)cc1` [Compound 49, 7-Bromo-4-(4-methoxy-benzyl)-1-pyrrolidin-1-yl-4H-[1,2,4]triazolo[4,3-a]quinazolin-5-one] were, in that order, 169 °C and 80 nM.
The like results for `CC(=O)Oc1ccc(Cn2c(=O)c3cc(Br)ccc3n3c(N4CCCC4)nnc23)cc1` [Compound 50, Acetic acid 4-(7-bromo-5-oxo-1-pyrrolidin-1-yl-5H-[1,2,4]triazolo[4,3-a]quinazolin-4-ylmethyl)-phenyl ester] were, in that order, 195 °C and 35 nM.
The like results for `O=c1c2cc(Br)ccc2n2c(N3CCCC3)nnc2n1Cc1ccc(O)cc1` [Compound 51, 7-Bromo-4-(4-hydroxy-benzyl)-1-pyrrolidin-1-yl-4H-[1,2,4]triazolo[4,3-a]quinazolin-5-one] were, in that order, 288 °C and 27 nM.
Regarding `COc1ccc(Cn2c(=O)c3cc(Br)ccc3n3c(N4CCCC4)nnc23)cc1OC` [Compound 52, 7-Bromo-4-(3,4-dimethoxy-benzyl)-1-pyrrolidin-1-yl-4H-[1,2,4]triazolo[4,3-a]quinazolin-5-one], the melting point is 151 °C. This compound also yielded a half-maximal inhibitory concentration (IC50) in series [1] of 30 nM.
`O=c1c2cc(Br)ccc2n2c(N3CCCC3)nnc2n1CC=Cc1ccccc1` [Compound 57, 1-(pyrrolidin-1-yl)-7-bromo-4-(3-phenylallyl)-4H-[1,2,4]triazolo[4,3-a]quinazolin-5-one]: the melting point was 152 to 155 °C. In series [1], this compound returned an IC50 of 14 nM.
For `O=c1c2cc(Br)ccc2n2c(N3CCCC3)nnc2n1C/C=C/c1ccc(Cl)cc1` [Compound 59, 7-Bromo-4-[(E)-3-(4-chloro-phenyl)-allyl]-1-pyrrolidin-1-yl-4H-[1,2,4)triazolo[4,3-a]quinazolin-5-one], the melting point was 187 °C. Further, the IC50 in series [1] worked out at 90 nM.
As for `COc1ccc(C=CCn2c(=O)c3cc(Br)ccc3n3c(N4CCCC4)nnc23)cc1` [Compound 60, 7-Bromo-4-[3-(4-methoxy-phenyl)-allyl]-1-pyrrolidin-1-yl-4H-[1,2,4]triazolo[4,3-a]quinazolin-5-one], the melting point came out at 171 °C. For the same compound, half-maximal inhibition in series [1] (IC50) was put at 50 nM.
The like results for `O=c1c2cc(Br)ccc2n2c(N3CCCC3)nnc2n1CC=Cc1cccnc1` [Compound 61, 7-Bromo-4-(3-pyridin-3-yl-allyl)-1-pyrrolidin-1-yl-4H-[1,2,4]triazolo[4,3-a]quinazolin-5-one] were, in that order, 102 °C and 11 nM.
For `O=c1c2cc(Br)ccc2n2c(N3CCCC3)nnc2n1C/C=C/c1ccncc1` [Compound 62, 7-Bromo-4-((E)-3-pyridin-4-yl-allyl)-1-pyrrolidin-1-yl-4H-[1,2,4]triazolo[4,3-a]quinazolin-5-one], in that order: 167 °C and 53 nM.
In turn, `COc1ccc(Cn2c(=O)c3cc(Br)ccc3n3c(N4CCCCC4)nnc23)cc1OC` [Compound 75, 7-Bromo-4-(3,4-dimethoxy-benzyl)-1-piperidin-1-yl-4H-[1,2,4]triazolo[4,3-a]quinazolin-5-one] returned a melting point of 178 °C. For the same compound, half-maximal inhibition in series [1] (IC50) was put at 78 nM.
For `Cc1ccc(Cn2c(=O)c3cc(Br)ccc3n3c(N(C)C)nnc23)cc1` [Compound 78, 7-Bromo-1-dimethylamino-4-(4-methyl-benzyl)-4H-[1,2,4]triazolo[4,3-a]quinazolin-5-one], in that order: 223 °C and 38 nM.
For the compound `CC(C)Nc1ccc2c(c1)c(=O)n(Cc1ccccc1)c1nnc(N3CCCC3)n21` [Compound 234, 4-Benzyl-7-isopropylamino-1-pyrrolidin-1-yl-4H-[1,2,4]triazolo[4,3-a]quinazolin-5-one], inhibition in series [1] was half-maximal at 2690 nM (IC50).
`COC(=O)Cc1ccc(Cn2c(=O)c3cc(Br)ccc3n3c(N4CCCC4)nnc23)cc1` [Compound 239, [4-(7-Bromo-5-oxo-1-pyrrolidin-1-yl-5H-[1,2,4]triazolo[4,3-a]quinazolin-4-ylmethyl)-phenyl]-acetic acid methyl ester] displayed an IC50 in series [1] of 5 nM.
In the case of `CNC(=O)Cc1ccc(Cn2c(=O)c3cc(Br)ccc3n3c(N4CCCC4)nnc23)cc1` [Compound 240, 2-[4-(7-Bromo-5-oxo-1-pyrrolidin-1-yl-5H-[1,2,4]triazolo[4,3-a]quinazolin-4-ylmethyl)-phenyl]-N-methyl-acetamide], the IC50 in series [1] was 13 nM.
